Measurements: patent EP0326331B1, “Substituted quinolines and cinnolines” (Dow AgroSciences LLC, priority 1988, dated 1989)
Like-named read-outs stand apart in the source and are kept apart here.

Legend:
Format in all cases: in vivo
[1] = tested on: Botrytis cinerea (gray mold); assay: Test 1 greenhouse foliar spray screen, gray mold on grape berries; conditions: disease control rating, spray on grape berries, 400 ppm (+++ at 100 ppm)
[2] = tested on: Septoria tritici (leaf blotch); assay: Test 1 greenhouse foliar spray screen, leaf blotch on wheat; conditions: disease control rating, foliar spray on wheat, 400 ppm (+++ at 100 ppm)
[3] = tested on: corn rootworm; assay: Mite/insect screen, CRW; conditions: for mortality at 12 ppm: read-out: CRW RESULTS %
In short: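 Following dissolution in equal parts acetone and alcohol with 23 g/L and 13 g/L emulsifier blends and dilution with water, test solutions were scored for percent mortality at the end of standard exposures.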

[4] = tested on: Twospotted spider mites (Tetranychus urticae Koch); assay: Mite/insect screen, SM; conditions: for mortality at 200 ppm: Tetranychus urticae, read-out: SM RESULTS %
In short: (§1)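 Foliar spray to runoff (10 psi), 1 h drying; aqueous dilutions from acetone/alcohol emulsifier stock. Mortality (%) after standard exposure.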

[5] = tested on: Erysiphe graminis tritici (powdery mildew); assay: Test 1 greenhouse foliar spray screen, powdery mildew on wheat; conditions: disease control rating, foliar spray on wheat, 400 ppm (+++ at 100 ppm)
[6] = tested on: Venturia inaequalis (apple scab); assay: Test 1 greenhouse foliar spray screen, apple scab on apple seedling; conditions: disease control rating, foliar spray on apple seedling, 400 ppm (+++ at 100 ppm)
[7] = tested on: Cercospora beticola (leaf spot); assay: Test 1 greenhouse foliar spray screen, leaf spot on sugar beet; conditions: disease control rating, foliar spray on sugar beet, 400 ppm (+++ at 100 ppm)
[8] = tested on: melon aphids (Aphis gossypii Glover); assay: Mite/insect screen, MA; conditions: for mortality at 200 ppm: Aphis gossypii, read-out: MA RESULTS %
In short: as §1

[9] = tested on: southern armyworm (Spodopetra eridania Cramer); assay: Mite/insect screen, SAW; conditions: Spodoptera eridania, read-out: SAW RESULTS %
In short: as §1

[10] = tested on: Pyricularia oryzae (rice blast); assay: whole plant or invertebrate; conditions: disease control rating, foliar spray on rice, 400 ppm (+++ at 100 ppm)
[11] = tested on: Puccinia recondita tritici (leaf rust); assay: Test 1 greenhouse foliar spray screen, leaf rust on wheat; conditions: disease control rating, foliar spray on wheat, 400 ppm (+++ at 100 ppm)
[12] = tested on: Pseudoperonospora cubensis (downy mildew); assay: Test 1 greenhouse foliar spray screen, downy mildew on squash; conditions: disease control rating, foliar spray on squash, 400 ppm (+++ at 100 ppm)
[13] = percent mortality, CRW RATE 12.00 PPM
[14] = percent mortality, SAW, SM & MA RATE 200 PPM

SMILES	GRAY MOLD [1]	LEAF BLOT [2]	mortality at 12 ppm [3, 13]	mortality at 200 ppm [4, 14]	POWD MDEW [5]	APPL SCAB [6]	LEAF SPOT [7]	mortality at 200 ppm [8, 14]	mortality at 200 ppm [9, 14]	RICE BLAST [10]	LEAF RUST [11]	DOWN MDEW [12]	mortality at 12 ppm [3]	mortality at 200 ppm [4]	mortality at 200 ppm [8]	mortality at 200 ppm [9]	CRW RESULTS % [3, 13]	SM RESULTS % [4, 14]	MA RESULTS % [8, 14]
Fc1cccc(F)c1CCNc1ccnc2c(F)cccc12 [Example 65, N-[2-(2,6-difluorophenyl)ethyl]-8-fluoro-4-quinolinamine]	- (0-19% control at 400 ppm)	+ (20-89% control at 400 ppm)	0%	0%	+ (20-89% control at 400 ppm)	- (0-19% control at 400 ppm)	- (0-19% control at 400 ppm)	0%	0%	+ (20-89% control at 400 ppm)	++ (90-100% control at 400 ppm)	+++ (90-100% control at 100 ppm)							
Fc1cccc(CCNc2ccnc3c(F)cccc23)c1 [Example 66, 8-fluoro-N-[2-(3-fluorophenyl)ethyl]-4-quinolinamine]	- (0-19% control at 400 ppm)	+ (20-89% control at 400 ppm)	0%	0%	+ (20-89% control at 400 ppm)	- (0-19% control at 400 ppm)	+++ (90-100% control at 100 ppm)	0%	0%	++ (90-100% control at 400 ppm)	+++ (90-100% control at 100 ppm)	+++ (90-100% control at 100 ppm)							
COc1cc(CCNc2ccnc3ccccc23)cc(OC)c1 [Example 67, N-[2-(3,5-dimethoxyphenyl)ethyl]-4-quinolinamine]	- (0-19% control at 400 ppm)	- (0-19% control at 400 ppm)	0%	0%	- (0-19% control at 400 ppm)	- (0-19% control at 400 ppm)	+ (20-89% control at 400 ppm)	0%	0%	+ (20-89% control at 400 ppm)	+ (20-89% control at 400 ppm)	++ (90-100% control at 400 ppm)							
COc1ccccc1CCNc1ccnc2c(F)cccc12 [Example 68, 8-fluoro-N-[2-(2-methoxyphenyl)ethyl]-4-quinolinamine]	- (0-19% control at 400 ppm)	+++ (90-100% control at 100 ppm)	0%	0%	+ (20-89% control at 400 ppm)	- (0-19% control at 400 ppm)	- (0-19% control at 400 ppm)	0%	0%	+ (20-89% control at 400 ppm)	+++ (90-100% control at 100 ppm)	++ (90-100% control at 400 ppm)							
Clc1cnc2ccccc2c1NCC(Cl)c1ccccc1 (stereo not drawn) [Example 69, 3-chloro-N-(2-chloro-2-phenylethyl)-4-quinolinamine]	- (0-19% control at 400 ppm)	- (0-19% control at 400 ppm)			+ (20-89% control at 400 ppm)	- (0-19% control at 400 ppm)	- (0-19% control at 400 ppm)			+ (20-89% control at 400 ppm)	+ (20-89% control at 400 ppm)	+++ (90-100% control at 100 ppm)	0%	0%	0%	0%			
FC(F)(F)c1cc(C(F)(F)F)c2c(NCCc3ccccc3)ccnc2c1 [Example 70, N-(2-phenylethyl)-5,7-bis-(trifluoromethyl)-4-quinolinamine]	- (0-19% control at 400 ppm)	- (0-19% control at 400 ppm)	0%	0%	+++ (90-100% control at 100 ppm)	- (0-19% control at 400 ppm)	- (0-19% control at 400 ppm)	0%	0%	+ (20-89% control at 400 ppm)	+ (20-89% control at 400 ppm)	- (0-19% control at 400 ppm)							
OCc1cnc2c(F)cccc2c1NCCc1ccccc1 [Example 73, 8-fluoro-4-[(2-phenylethyl)amino]-3-quinolinemethanol]	- (0-19% control at 400 ppm)	- (0-19% control at 400 ppm)	0%	0%	- (0-19% control at 400 ppm)	- (0-19% control at 400 ppm)	- (0-19% control at 400 ppm)	0%	0%	+ (20-89% control at 400 ppm)	- (0-19% control at 400 ppm)	++ (90-100% control at 400 ppm)							
Fc1cccc2c(NCCc3ccc(Cl)c(Cl)c3)ccnc12 [Example 75, N-[2-(3,4-dichlorophenyl)ethyl]-8-fluoro-4-quinolinamine]	- (0-19% control at 400 ppm)	+ (20-89% control at 400 ppm)	0%	0%	+ (20-89% control at 400 ppm)	- (0-19% control at 400 ppm)	- (0-19% control at 400 ppm)	0%	0%	+ (20-89% control at 400 ppm)	++ (90-100% control at 400 ppm)	+++ (90-100% control at 100 ppm)							
CC(CNc1ccnc2c(F)cccc12)c1ccccc1 (stereo not drawn) [Example 77, 8-fluoro-N-(2-phenylpropyl)-4-quinolinamine]	- (0-19% control at 400 ppm)	- (0-19% control at 400 ppm)	0%	0%	+ (20-89% control at 400 ppm)	+ (20-89% control at 400 ppm)	- (0-19% control at 400 ppm)	0%	0%	+ (20-89% control at 400 ppm)	++ (90-100% control at 400 ppm)	+++ (90-100% control at 100 ppm)							
Fc1ccc(CCNc2ccnc3c(F)cccc23)cc1 [Example 78, 8-fluoro-N-[2-(4-fluorophenyl)ethyl]-4-quinolinamine]	- (0-19% control at 400 ppm)	+ (20-89% control at 400 ppm)	0%	0%	+ (20-89% control at 400 ppm)	- (0-19% control at 400 ppm)	+++ (90-100% control at 100 ppm)	0%	20%	++ (90-100% control at 400 ppm)	+++ (90-100% control at 100 ppm)	+++ (90-100% control at 100 ppm)					0%	0%	0%
CC(CNc1ccnc2c(F)cccc12)(c1ccccc1)c1ccccc1 [Example 80, N-(2,2-diphenylpropyl)-8-fluoro-4-quinolinamine]	- (0-19% control at 400 ppm)	- (0-19% control at 400 ppm)	0%	0%	+ (20-89% control at 400 ppm)	- (0-19% control at 400 ppm)	+ (20-89% control at 400 ppm)	0%	0%	++ (90-100% control at 400 ppm)	++ (90-100% control at 400 ppm)	+++ (90-100% control at 100 ppm)							
